# According to patent publication US8513232B2, “Substituted spirocyclic piperidine derivatives as histamine-3 (H3) receptor ligands” (Cephalon, Inc., priority 2008, dated 2013):
# Counter-ions that a name gives are not always drawn. Like-named read-outs stand apart in the source and are kept apart here.
# Legend:
# human H3 receptor = molecular target: T1, human H3 receptor (Homo sapiens, UniProt Q9Y5N1); experiment: Human H3 radioligand binding ([3H]-N-alpha-methylhistamine, SPA)
# T1 construct: expressed in transfected cells
# Experimental: (§1) Methods: CHO cells stably expressing the human H3 receptor (GenBank: NM_007232) were harvested and cell pellets were frozen (−80° C.). Cell pellets were resuspended in 5 mM Tris-HCl, pH 7.5 with […] and a cocktail of protease inhibitors (Complete Protease Inhibitior Tablets, Roche Diagnostics). Cells were disrupted using a polytron cell homogenizer and the suspension was centrifuged at 1000×g for 10 minutes at 4° C. The pellet was discarded and the supernatant centrifuged at 40,000×g for 30 min at 4° C. This membrane pellet was washed in membrane buffer containing 50 mM Tris-HCl, pH 7.5 with 0.6 mM EDTA, 5 mM MgCl2 and protease inhibitors, recentrifuged as above and the final pellet resuspended in membrane buffer plus 250 mM sucrose and frozen at −80° C.
# (§2) Radioligand Binding. Membranes were resuspended in 50 mM Tris HCl (pH 7.4), 5 mM MgCl2, 0.1% BSA. The membrane suspensions (10 μg protein per well) were incubated in a 96 well microtiter plate with [^3H]-N-alpha-methylhistamine (approximately 1 nM final concentration), test compounds at various concentrations (0.01 nM-30 μM) and scintillation proximity beads (Perkin Elmer, FlashBlueGPCR Scintillating Beads) in a final volume of 80 μl for 4 hours at room temperature, protected from light. Non-specific binding was determined in the presence of 10 μM clobenpropit. Radioligand bound to receptor, and therefore in proximity to the scintillation beads, was measured using a MicroBeta scintillation counter.
# [1] = molecular target: T2, rat histamine H3 receptor (Rattus norvegicus, UniProt Q9QYN8); experiment: Rat H3 radioligand binding ([3H]-N-alpha-methylhistamine, SPA)
# T2 construct: encoding the entire 445-amino-acid rat histamine H3 receptor; expressed in transfected cells; membrane preparation
# Description: as §1, with “Cell line development and membrane preparation. The rat” for “Methods: CHO cells stably expressing the human”, “cDNA was PCR amplified from reverse-transcribed RNA pooled from rat thalamus, hypothalamus, striatum and prefrontal cortex with a sequence corresponding to by #338-1672 of Genbank file #NM_053506, encoding the entire 445-amino-acid rat histamine H3 receptor. This was engineered into the pIRES-neo3 mammalian expression vector, which was stably transfected into the CHO-A3 cell line (Euroscreen, Belgium), followed by clonal selection by limiting dilution. Cells” for “(GenBank: NM_007232)”
# as §2
# [2] = human H3 binding, Table D, read-out: Human H3 Ki
# [3] = Table C, human H3 binding, read-out: Human H3 Ki
# [4] = Table C, rat H3 binding, read-out: Rat H3 Ki
# [5] = Table A, human H3 binding, read-out: Human Ki
# [6] = Table A, rat H3 binding, read-out: Rat Ki
# [7] = Human H3 binding, Table B, Examples 136-362, read-out: hum H3 binding Ki
# [8] = Rat H3 binding, Table B, Examples 136-362, read-out: rat H3 binding Ki
# [9] = rat H3 binding, Table D, read-out: Rat H3 Ki
# T2 sequence (Q9QYN8 whole entry): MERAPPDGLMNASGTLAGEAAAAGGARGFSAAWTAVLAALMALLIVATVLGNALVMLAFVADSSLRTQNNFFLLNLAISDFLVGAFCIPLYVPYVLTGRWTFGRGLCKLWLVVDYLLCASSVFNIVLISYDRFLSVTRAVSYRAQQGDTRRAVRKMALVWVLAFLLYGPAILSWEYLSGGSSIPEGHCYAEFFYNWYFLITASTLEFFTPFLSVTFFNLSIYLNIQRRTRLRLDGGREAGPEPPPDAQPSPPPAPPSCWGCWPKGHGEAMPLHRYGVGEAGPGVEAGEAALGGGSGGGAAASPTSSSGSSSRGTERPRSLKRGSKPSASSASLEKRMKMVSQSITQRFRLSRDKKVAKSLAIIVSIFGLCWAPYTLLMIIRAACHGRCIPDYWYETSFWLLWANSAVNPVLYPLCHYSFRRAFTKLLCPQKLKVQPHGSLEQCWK
# T1 sequence (Q9Y5N1 whole entry): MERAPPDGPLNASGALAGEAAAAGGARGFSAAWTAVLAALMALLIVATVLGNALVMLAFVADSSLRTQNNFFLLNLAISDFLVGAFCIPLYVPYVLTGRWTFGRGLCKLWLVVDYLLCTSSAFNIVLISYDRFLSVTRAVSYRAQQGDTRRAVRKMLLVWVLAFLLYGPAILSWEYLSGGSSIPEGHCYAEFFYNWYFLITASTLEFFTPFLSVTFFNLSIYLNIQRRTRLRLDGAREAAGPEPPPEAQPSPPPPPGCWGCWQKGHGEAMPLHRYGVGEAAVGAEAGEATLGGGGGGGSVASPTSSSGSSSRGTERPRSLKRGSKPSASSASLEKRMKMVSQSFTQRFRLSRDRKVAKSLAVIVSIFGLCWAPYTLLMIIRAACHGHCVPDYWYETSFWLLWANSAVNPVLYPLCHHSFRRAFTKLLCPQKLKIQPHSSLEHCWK
SMILES,Ki (human H3 receptor; [5]) [nM],"Ki [1, 6] [nM]",further results
Cc1nc(C)c(-c2ccc3c(c2)COC2(CCN(C4CCC4)CC2)O3)s1 (as salt: HCl) [Example 70],–,–,melting point: 225 to 227 °C
CC(C)CN1CC(c2ccc3c(c2)COC2(CCN(C4CCC4)CC2)O3)CCC1=O (stereo not shown) (as salt: HCl) [Example 564],–,–,melting point: 98 to 103 °C
O=c1ccc(-c2ccc3c(c2)COC2(CCN(C4CC(CO)C4)CC2)O3)c[nH]1 (stereo not shown) [Example 721],–,–,melting point: 228 to 230 °C; Ki (human H3 receptor; [2]): > 1000 nM
c1cc2c(cc1OC1CCNCC1)CCC1(CCN(C3CCC3)CC1)O2 (as salt: HCl) [Example 425],–,–,melting point: > 320 °C
c1ccc(Oc2ccc3c(c2)COC2(CCN(C4CCC4)CC2)O3)cc1 (as salt: HCl) [Example 131],–,–,melting point: 240 to 245 °C
c1cn2c(n1)CN(c1ccc3c(c1)CCC1(CCN(C4CCC4)CC1)O3)CC2 [Example 428],–,–,"Ki (human H3 receptor; [3]): < 200 nM; Ki [1, 4]: < 200 nM"
N#Cc1ccccc1-c1ccc2c(c1)COC1(CCN(C3CCC3)CC1)O2 [Example 73],< 200,< 200,–
N#Cc1ccc(-c2ccc3c(c2)CCC2(CCN(C4CCC4)CC2)O3)cc1 [Example 110],< 200,< 200,–
O=S(=O)(c1ccc(-c2ccc3c(c2)COC2(CCN(C4CCC4)CC2)O3)cc1)N1CCCC1 [Example 16],< 200,< 200,–
O=C(c1ccc(-c2ccc3c(c2)CCC2(CCN(C4CCC4)CC2)O3)cc1)N1CCOCC1 [Example 99],< 200,< 200,–
c1ncc(-c2ccc3c(c2)CCC2(CCN(C4CCC4)CC2)O3)cn1 [Example 107],< 200,< 200,–
c1cc2c(cc1OC[C@H]1CCCO1)CCC1(CCN(C3CCC3)CC1)O2 [Example 464],–,–,Ki (human H3 receptor; read-out: Human H3 Ki): < 200 nM; Ki ([1]; read-out: Rat H3 kI): < 200 nM
c1cc2c(cc1OC1CCSCC1)CCC1(CCN(C3CCC3)CC1)O2 [Example 457],–,–,Ki (human H3 receptor; read-out: Human H3 Ki): < 200 nM; Ki ([1]; read-out: Rat H3 kI): < 200 nM
N#Cc1cccc(-c2ccc3c(c2)OC2(CCN(C4CCC4)CC2)O3)c1 [Example 92],200 to 1000,> 1000,–
Fc1ncccc1-c1ccc2c(c1)CCC1(CCN(C3CCC3)CC1)O2 [Example 118],< 200,< 200,–
c1cc2c(cc1-c1cn[nH]c1)CCC1(CCN(C3CCC3)CC1)O2 [Example 114],< 200,< 200,–
COc1ncc(-c2ccc3c(c2)CCC2(CCN(C4CCC4)CC2)O3)cn1 [Example 104],< 200,< 200,–
CCNC(=O)C1CC=C(c2ccc3c(c2)COC2(CCN(C4CCC4)CC2)O3)CC1 (stereo not shown) [Example 523],–,–,Ki (human H3 receptor; read-out: Human H3 Ki): < 200 nM; Ki ([1]; read-out: Rat H3 kI): < 200 nM
NS(=O)(=O)c1ccc(-c2ccc3c(c2)CCC2(CCN(C4CCC4)CC2)O3)cc1 [Example 116],< 200,< 200,–
CC(C)Cn1cc(-c2ccc3c(c2)COC2(CCN(C4CCC4)CC2)O3)ccc1=O (as salt: HCl) [Example 562],–,–,melting point: 182 to 190 °C
O=C(Nc1ccc2c(c1)COC1(CCN(C3CCC3)CC1)O2)Nc1ccccc1Cl [Example 185],–,–,"Ki (human H3 receptor; [7]): < 200 nM; Ki [1, 8]: < 200 nM"
O=C(O)CCc1ccc2c(c1)COC1(CCN(C3CCC3)CC1)O2 [Example 637],–,–,melting point: 235 to 237 °C; Ki (human H3 receptor; [2]): 200 to 1000 nM
Cn1cc(-c2ccc3c(c2)CCC2(CCN(C4CCC4)CC2)O3)cn1 [Example 111],< 200,< 200,–

SMILES,Ki (human H3 receptor; [5]) [nM],"Ki [1, 6] [nM]",further results
COCCN(C)C(=O)c1ccc(-c2ccc3c(c2)COC2(CCN(C4CCC4)CC2)O3)cc1F [Example 300],–,–,"Ki (human H3 receptor; [7]): < 200 nM; Ki [1, 8]: < 200 nM"
c1csc(Cc2ccc3c(c2)COC2(CCN(C4CCC4)CC2)O3)n1 [Example 696],–,–,"Ki (human H3 receptor; [2]): < 200 nM; Ki [1, 9]: < 200 nM"
c1cc2c(cc1OC1CCSC1)CCC1(CCN(C3CCC3)CC1)O2 (stereo not shown) [Example 484],–,–,Ki (human H3 receptor; read-out: Human H3 Ki): < 200 nM; Ki ([1]; read-out: Rat H3 kI): < 200 nM
CC(C)CN1CC(c2ccc3c(c2)COC2(CCN(C4CCC4)CC2)O3)CCC1=O (stereo not shown) [Example 564],–,–,Ki (human H3 receptor; read-out: Human H3 Ki): < 200 nM; Ki ([1]; read-out: Rat H3 kI): < 200 nM
Cc1c(-c2ccc(=O)n(C)c2)ccc2c1COC1(CCN(C3CCC3)CC1)O2 [Example 557],–,–,Ki (human H3 receptor; read-out: Human H3 Ki): < 200 nM; Ki ([1]; read-out: Rat H3 kI): < 200 nM
N#Cc1ccc(Oc2ccc3c(c2)COC2(CCN(C4CCC4)CC2)O3)cc1 [Example 132],< 200,< 200,–
O=C(c1cccc(-c2ccc3c(c2)OC2(CCN(C4CCC4)CC2)O3)c1)N1CCOCC1 [Example 91],< 200,< 200,–
O=C(O)c1c(F)cc(-c2ccc3c(c2)COC2(CCN(C4CCC4)CC2)O3)cc1F [Example 334],–,–,"Ki (human H3 receptor; [7]): 200 to 1000 nM; Ki ([1]; Rat H3 binding, Table B, given as numeric bound instead of class symbol, read-out: rat H3 binding Ki): > 300 nM"
COCCN(C)C(=O)c1ccc(-c2ccc3c(c2)CCC2(CCN(C4CCC4)CC2)O3)cc1F [Example 294],–,–,"Ki (human H3 receptor; [7]): < 200 nM; Ki [1, 8]: < 200 nM"
FC(F)(F)Oc1ccc(-c2ccc3c(c2)CCC2(CCN(C4CCC4)CC2)O3)cc1 [Example 105],< 200,200 to 1000,–
COCc1cc(=O)n(C)cc1-c1ccc2c(c1)COC1(CCN(C3CCC3)CC1)O2 [Example 790],–,–,"Ki (human H3 receptor; [2]): < 200 nM; Ki [1, 9]: < 200 nM"
COC1CCN(c2ccc3c(c2)CCC2(CCN(C4CCC4)CC2)O3)CC1 [Example 380],–,–,"Ki (human H3 receptor; [3]): < 200 nM; Ki [1, 4]: < 200 nM"
O=C(c1cccc(-c2ccc3c(c2)OC2(CCN(C4CCC4)CC2)OC3)c1)N1CCCC1 [Example 94],200 to 1000,200 to 1000,–
NC(=O)c1ccc(-c2ccc3c(c2)CCC2(CCN(C4CCC4)CC2)O3)cc1 [Example 113],< 200,< 200,–
O=C(O)c1c(F)cc(-c2ccc3c(c2)CCC2(CCN(C4CCC4)CC2)O3)cc1F [Example 318],–,–,"Ki (human H3 receptor; [7]): < 200 nM; Ki [1, 8]: < 200 nM"
c1cc2c(cc1OC1CCNCC1)CCC1(CCN(C3CCC3)CC1)O2 [Example 425],–,–,"Ki (human H3 receptor; [3]): < 200 nM; Ki [1, 4]: < 200 nM"
CNC(=O)c1ccc(-c2ccc3c(c2)CCC2(CCN(C4CCC4)CC2)O3)cc1F [Example 115],< 200,< 200,–
NC(=O)c1c(F)cc(-c2ccc3c(c2)CCC2(CCN(C4CCC4)CC2)O3)cc1F [Example 340],–,–,"Ki (human H3 receptor; [7]): < 200 nM; Ki [1, 8]: < 200 nM"
NC(=O)Cc1ccc(-c2ccc3c(c2)COC2(CCN(C4CCC4)CC2)O3)cc1 [Example 49],< 200,< 200,–
O=C(c1ccc(-c2ccc3c(c2)COC2(CCN(C4CCC4)CC2)O3)cc1)N1CCCC1 [Example 8],< 200,< 200,–
O=C(c1cccc(-c2ccc3c(c2)COC2(CCN(C4CCC4)CC2)O3)c1)N1CCCCC1 [Example 53],< 200,< 200,–
c1cnc(COc2ccc3c(c2)CCC2(CCN(C4CCC4)CC2)O3)nc1 [Example 317],–,–,"Ki (human H3 receptor; [7]): < 200 nM; Ki [1, 8]: < 200 nM"

# Now from value to compound, other results behind:
Ki (human H3 receptor; [5]) [nM],"Ki [1, 6] [nM]",SMILES,further results
< 200,< 200,CCS(=O)(=O)c1ccc(-c2ccc3c(c2)COC2(CCN(C4CCC4)CC2)O3)cc1 [Example 20],–
< 200,< 200,c1csc(-c2ccc3c(c2)COC2(CCN(C4CCC4)CC2)O3)c1 [Example 12],–
< 200,< 200,O=S(=O)(c1ccc(-c2ccc3c(c2)COC2(CCN(C4CCC4)CC2)O3)cc1)N1CCC1 [Example 24],–
< 200,< 200,COc1ncc(-c2ccc3c(c2)COC2(CCN(C4CCC4)CC2)O3)cn1 [Example 23],–
< 200,< 200,c1cc(-c2ccc3c(c2)COC2(CCN(C4CCC4)CC2)O3)cs1 [Example 13],–
< 200,< 200,O=S(=O)(NC1CC1)c1ccc(-c2ccc3c(c2)COC2(CCN(C4CCC4)CC2)O3)cc1 [Example 25],–
< 200,< 200,NC(=O)Nc1cccc(-c2ccc3c(c2)COC2(CCN(C4CCC4)CC2)O3)c1 [Example 52],–
< 200,< 200,O=C(NC1CC1)c1ccc(-c2ccc3c(c2)COC2(CCN(C4CCC4)CC2)O3)cc1 [Example 14],–
< 200,< 200,N#Cc1ncc(-c2ccc3c(c2)COC2(CCN(C4CCC4)CC2)O3)s1 [Example 75],–
